# Source: ChEMBL document CHEMBL3108676, “Discovery of a Novel Class of Imidazo[1,2-a]Pyridines with Potent PDGFR Activity and Oral Bioavailability” (ACS Med Chem Lett, 2014)
# Activity calls are given as the source filed them. The rule behind the calls is not given here.
# Assays:
# [1] = target: Macrophage colony-stimulating factor 1 receptor (Homo sapiens, UniProt P07333)
# Description: Inhibition of cFMS (unknown origin)
# [2] = target: T1, Platelet-derived growth factor receptor beta (Mus musculus, UniProt P05622); experiment: Inhibition of PDGF-induced PDGFRbeta phosphorylation in mouse NIH3T3 cells incubated for 1 hr prior to PDGF induction measured after 15 mins by fluorescence assay in presence of 50% human plasma; format: cell-based
# [3] = target: T1, Platelet-derived growth factor receptor beta; experiment: Inhibition of PDGF-induced PDGFRbeta phosphorylation in mouse NIH3T3 cells incubated for 1 hr prior to PDGF induction measured after 15 mins by fluorescence assay; format: cell-based
# [4] = target: Mast/stem cell growth factor receptor Kit (Homo sapiens, UniProt P10721); experiment: Inhibition of cKIT (unknown origin)
# [5] = target: Cytochrome P450 2C9 (Homo sapiens, UniProt P11712); experiment: Inhibition of CYP2C9 (unknown origin); format: ADME
# [6] = target: Cytochrome P450 2C19 (Homo sapiens, UniProt P33261); experiment: Inhibition of CYP2C19 (unknown origin); format: ADME
# [7] = target: Cytochrome P450 2D6 (Homo sapiens, UniProt P10635); experiment: Inhibition of CYP2D6 (unknown origin); format: ADME
# [8] = target: Cytochrome P450 3A4 (Homo sapiens, UniProt P08684); experiment: Inhibition of CYP3A4 (unknown origin); format: ADME
# [9] = target: T2, Cytochrome P450 1A2 (Homo sapiens, UniProt P05177); experiment: Inhibition of CYP1A2 (unknown origin); format: ADME
# T2 sequence (P05177 whole entry): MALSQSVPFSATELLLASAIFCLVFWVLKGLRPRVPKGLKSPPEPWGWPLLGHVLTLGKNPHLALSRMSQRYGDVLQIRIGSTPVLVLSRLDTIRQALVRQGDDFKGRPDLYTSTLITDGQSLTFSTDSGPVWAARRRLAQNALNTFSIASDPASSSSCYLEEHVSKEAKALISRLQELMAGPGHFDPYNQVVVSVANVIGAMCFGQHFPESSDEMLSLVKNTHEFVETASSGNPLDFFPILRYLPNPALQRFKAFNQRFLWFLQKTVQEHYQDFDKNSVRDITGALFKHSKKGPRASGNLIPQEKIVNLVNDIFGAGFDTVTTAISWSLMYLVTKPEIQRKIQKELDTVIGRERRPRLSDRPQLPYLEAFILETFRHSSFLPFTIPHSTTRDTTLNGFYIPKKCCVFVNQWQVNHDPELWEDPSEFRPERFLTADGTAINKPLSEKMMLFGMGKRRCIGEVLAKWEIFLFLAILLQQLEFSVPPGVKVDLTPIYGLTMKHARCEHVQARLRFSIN
# [10] = tested on: Rattus norvegicus; experiment: (§1) Oral bioavailability in rat at 10 mg/kg; format: ADME, organism-based; settings: in vivo
# [11] = tested on: MDR1; experiment: Apparent permeability across apical to basolateral side in pig LLC-PK1 cells expressing MDR1 assessed as compound recovery; format: ADME, cell-based, Sus scrofa; settings: read-out: Papp
# [12] = Dissociation constant, pKa of the compound; format: physicochemical
# [13] = (§2) Apparent permeability across apical to basolateral side in pig LLC-PK1 cells; format: ADME, cell-based, Sus scrofa; settings: LLC-PK1
# [14] = tested on: Rattus norvegicus; experiment: (§3) AUC in rat at 10 mg/kg, po; format: ADME, organism-based, Plasma; design: dose 10 mg/kg, route oral; settings: in vivo
# [15] = tested on: Rattus norvegicus; experiment: (§4) Cmax in rat at 10 mg/kg, po; format: ADME, organism-based; design: dose 10 mg/kg, route oral; settings: in vivo
# [16] = as §1; format: ADME, organism-based; settings: in vivo
# [17] = Solubility of the compound; format: physicochemical
# [18] = as §3; format: ADME, organism-based, Plasma; design: dose 10 mg/kg, route oral; settings: plasma
# [19] = Clearance in rat at 1 mg/kg, iv; format: ADME, organism-based; design: dose 1 mg/kg, route intravenous; settings: in vivo
# [20] = as §4; format: ADME, organism-based; design: dose 10 mg/kg, route oral; settings: in vivo
# [21] = Oral bioavailability in cynomolgus monkey at 30 mg/kg; format: ADME, organism-based, Macaca fascicularis; settings: in vivo
# [22] = AUC in cynomolgus monkey at 30 mg/kg, po; format: ADME, organism-based, Macaca fascicularis; design: dose 30 mg/kg, route oral; settings: plasma
# [23] = tested on: LLC-PK1; experiment: as §2; format: ADME, cell-based, Sus scrofa; settings: llc-pk1
# [24] = target: Voltage-gated inwardly rectifying potassium channel KCNH2 (Homo sapiens, UniProt Q12809); experiment: Inhibition of human ERG
# [25] = tested on: Rattus norvegicus; experiment: Toxicity in rat up to 50 mg/kg, po bid administered for 2 weeks; format: organism-based; design: dose 50 mg/kg, route oral; settings: in vivo, 336 h
# [26] = Cmax in cynomolgus monkey at 30 mg/kg, po; format: ADME, organism-based, Macaca fascicularis; design: dose 30 mg/kg, route oral; settings: in vivo
# [27] = tested on: Mus musculus; experiment: In vivo inhibition of PDGFR phosphorylation in tumor of nu/nu nude mouse xenografted with rat C6 cells administered as po qd after 2 to 6 hrs; format: functional, organism-based
# [28] = tested on: Mus musculus; experiment: In vivo inhibition of PDGFR phosphorylation in tumor of nu/nu nude mouse xenografted with rat C6 cells at 10 to 100 mg/kg, po qd after 12 hrs; format: functional, organism-based
# Macrophage colony-stimulating factor 1 receptor, sequence (P07333 whole entry): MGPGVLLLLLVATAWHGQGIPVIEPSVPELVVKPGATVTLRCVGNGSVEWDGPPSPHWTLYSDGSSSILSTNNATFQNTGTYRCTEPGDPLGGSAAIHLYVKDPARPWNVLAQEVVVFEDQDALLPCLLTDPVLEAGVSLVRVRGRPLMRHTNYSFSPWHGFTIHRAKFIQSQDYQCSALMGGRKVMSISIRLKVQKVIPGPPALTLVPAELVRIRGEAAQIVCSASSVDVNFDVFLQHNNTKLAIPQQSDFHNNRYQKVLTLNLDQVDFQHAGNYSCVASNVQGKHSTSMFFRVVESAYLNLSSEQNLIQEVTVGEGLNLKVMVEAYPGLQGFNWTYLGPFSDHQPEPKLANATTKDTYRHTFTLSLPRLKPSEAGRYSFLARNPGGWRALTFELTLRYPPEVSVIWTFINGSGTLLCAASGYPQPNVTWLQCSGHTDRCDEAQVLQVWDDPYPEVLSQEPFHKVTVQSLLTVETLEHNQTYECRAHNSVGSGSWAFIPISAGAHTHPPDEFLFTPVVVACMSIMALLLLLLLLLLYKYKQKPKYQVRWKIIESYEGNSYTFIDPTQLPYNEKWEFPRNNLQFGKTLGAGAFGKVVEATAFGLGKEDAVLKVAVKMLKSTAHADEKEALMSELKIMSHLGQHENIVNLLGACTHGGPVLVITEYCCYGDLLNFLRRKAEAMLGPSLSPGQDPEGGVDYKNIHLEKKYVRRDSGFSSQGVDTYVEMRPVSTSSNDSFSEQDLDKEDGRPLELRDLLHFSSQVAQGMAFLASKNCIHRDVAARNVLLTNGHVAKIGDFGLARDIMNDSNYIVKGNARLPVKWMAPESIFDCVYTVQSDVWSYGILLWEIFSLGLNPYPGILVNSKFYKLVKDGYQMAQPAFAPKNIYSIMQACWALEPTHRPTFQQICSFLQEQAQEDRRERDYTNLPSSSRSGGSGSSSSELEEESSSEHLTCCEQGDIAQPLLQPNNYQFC
# T1 sequence (P05622 whole entry): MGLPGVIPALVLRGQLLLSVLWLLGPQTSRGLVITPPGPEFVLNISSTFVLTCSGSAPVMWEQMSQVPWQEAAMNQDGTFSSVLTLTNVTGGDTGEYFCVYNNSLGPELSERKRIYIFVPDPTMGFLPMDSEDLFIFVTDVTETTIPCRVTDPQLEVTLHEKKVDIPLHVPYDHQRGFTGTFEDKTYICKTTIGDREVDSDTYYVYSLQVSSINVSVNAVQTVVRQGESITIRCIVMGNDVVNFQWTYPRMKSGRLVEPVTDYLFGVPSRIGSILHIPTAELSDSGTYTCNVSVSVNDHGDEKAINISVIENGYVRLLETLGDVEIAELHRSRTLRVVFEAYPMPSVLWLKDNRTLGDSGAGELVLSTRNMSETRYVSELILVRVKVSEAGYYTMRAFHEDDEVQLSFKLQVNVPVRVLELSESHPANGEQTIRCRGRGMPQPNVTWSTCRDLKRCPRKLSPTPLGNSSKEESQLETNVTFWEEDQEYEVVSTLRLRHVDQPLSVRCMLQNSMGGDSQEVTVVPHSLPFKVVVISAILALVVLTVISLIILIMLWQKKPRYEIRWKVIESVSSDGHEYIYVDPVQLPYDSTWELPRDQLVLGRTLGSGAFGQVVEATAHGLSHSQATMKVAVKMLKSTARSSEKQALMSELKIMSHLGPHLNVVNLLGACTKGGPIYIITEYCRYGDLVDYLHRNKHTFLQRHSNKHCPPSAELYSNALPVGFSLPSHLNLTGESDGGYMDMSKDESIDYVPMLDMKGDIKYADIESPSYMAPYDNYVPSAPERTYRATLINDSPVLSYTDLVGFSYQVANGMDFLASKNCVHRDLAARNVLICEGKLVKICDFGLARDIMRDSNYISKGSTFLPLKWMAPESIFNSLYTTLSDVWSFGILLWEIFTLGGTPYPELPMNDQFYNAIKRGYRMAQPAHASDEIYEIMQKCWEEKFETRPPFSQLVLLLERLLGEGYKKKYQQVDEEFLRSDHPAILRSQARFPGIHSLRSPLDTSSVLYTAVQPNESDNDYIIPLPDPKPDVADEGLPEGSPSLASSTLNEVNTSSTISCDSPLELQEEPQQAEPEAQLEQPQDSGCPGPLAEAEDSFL
# Cytochrome P450 3A4, sequence (P08684 whole entry): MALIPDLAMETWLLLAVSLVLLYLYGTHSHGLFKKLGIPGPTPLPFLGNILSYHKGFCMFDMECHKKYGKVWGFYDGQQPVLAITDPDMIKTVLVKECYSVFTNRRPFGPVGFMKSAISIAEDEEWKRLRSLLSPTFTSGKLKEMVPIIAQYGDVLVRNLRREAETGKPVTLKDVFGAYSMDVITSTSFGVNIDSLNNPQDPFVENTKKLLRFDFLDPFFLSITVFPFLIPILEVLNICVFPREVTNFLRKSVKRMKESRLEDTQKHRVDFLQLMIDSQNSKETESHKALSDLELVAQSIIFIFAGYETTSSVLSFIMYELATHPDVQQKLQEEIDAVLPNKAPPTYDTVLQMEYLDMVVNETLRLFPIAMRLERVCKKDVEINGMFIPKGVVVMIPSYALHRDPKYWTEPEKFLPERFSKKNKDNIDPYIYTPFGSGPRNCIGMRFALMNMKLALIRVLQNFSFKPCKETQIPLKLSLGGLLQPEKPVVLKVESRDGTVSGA
# Cytochrome P450 2C19, sequence (P33261 whole entry): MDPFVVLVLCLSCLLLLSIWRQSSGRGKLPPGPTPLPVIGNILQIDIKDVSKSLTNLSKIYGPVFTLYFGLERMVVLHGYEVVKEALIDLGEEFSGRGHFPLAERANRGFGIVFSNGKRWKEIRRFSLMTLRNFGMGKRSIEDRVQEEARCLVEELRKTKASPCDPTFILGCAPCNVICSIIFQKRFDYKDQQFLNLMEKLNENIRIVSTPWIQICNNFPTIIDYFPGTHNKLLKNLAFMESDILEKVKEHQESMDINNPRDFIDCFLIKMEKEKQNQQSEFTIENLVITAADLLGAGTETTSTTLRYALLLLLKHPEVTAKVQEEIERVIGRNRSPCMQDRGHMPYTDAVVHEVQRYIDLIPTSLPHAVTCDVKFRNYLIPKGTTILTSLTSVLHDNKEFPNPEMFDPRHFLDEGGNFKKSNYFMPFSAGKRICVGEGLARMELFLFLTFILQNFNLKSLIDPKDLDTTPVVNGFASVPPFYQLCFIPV
# Cytochrome P450 2D6, sequence (P10635 whole entry): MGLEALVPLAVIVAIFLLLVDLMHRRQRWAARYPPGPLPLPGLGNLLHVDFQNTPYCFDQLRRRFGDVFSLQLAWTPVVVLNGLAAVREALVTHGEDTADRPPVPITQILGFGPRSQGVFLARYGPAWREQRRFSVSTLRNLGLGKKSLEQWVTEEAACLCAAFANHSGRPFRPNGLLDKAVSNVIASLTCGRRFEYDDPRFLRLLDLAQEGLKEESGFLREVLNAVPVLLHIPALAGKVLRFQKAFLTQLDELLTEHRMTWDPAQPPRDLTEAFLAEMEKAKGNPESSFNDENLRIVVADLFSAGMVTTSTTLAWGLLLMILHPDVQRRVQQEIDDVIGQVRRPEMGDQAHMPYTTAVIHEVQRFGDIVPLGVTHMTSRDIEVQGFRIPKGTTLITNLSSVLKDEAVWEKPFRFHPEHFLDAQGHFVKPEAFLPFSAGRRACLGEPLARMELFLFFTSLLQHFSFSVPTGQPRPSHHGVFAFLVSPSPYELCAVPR
# Mast/stem cell growth factor receptor Kit, sequence (P10721 whole entry): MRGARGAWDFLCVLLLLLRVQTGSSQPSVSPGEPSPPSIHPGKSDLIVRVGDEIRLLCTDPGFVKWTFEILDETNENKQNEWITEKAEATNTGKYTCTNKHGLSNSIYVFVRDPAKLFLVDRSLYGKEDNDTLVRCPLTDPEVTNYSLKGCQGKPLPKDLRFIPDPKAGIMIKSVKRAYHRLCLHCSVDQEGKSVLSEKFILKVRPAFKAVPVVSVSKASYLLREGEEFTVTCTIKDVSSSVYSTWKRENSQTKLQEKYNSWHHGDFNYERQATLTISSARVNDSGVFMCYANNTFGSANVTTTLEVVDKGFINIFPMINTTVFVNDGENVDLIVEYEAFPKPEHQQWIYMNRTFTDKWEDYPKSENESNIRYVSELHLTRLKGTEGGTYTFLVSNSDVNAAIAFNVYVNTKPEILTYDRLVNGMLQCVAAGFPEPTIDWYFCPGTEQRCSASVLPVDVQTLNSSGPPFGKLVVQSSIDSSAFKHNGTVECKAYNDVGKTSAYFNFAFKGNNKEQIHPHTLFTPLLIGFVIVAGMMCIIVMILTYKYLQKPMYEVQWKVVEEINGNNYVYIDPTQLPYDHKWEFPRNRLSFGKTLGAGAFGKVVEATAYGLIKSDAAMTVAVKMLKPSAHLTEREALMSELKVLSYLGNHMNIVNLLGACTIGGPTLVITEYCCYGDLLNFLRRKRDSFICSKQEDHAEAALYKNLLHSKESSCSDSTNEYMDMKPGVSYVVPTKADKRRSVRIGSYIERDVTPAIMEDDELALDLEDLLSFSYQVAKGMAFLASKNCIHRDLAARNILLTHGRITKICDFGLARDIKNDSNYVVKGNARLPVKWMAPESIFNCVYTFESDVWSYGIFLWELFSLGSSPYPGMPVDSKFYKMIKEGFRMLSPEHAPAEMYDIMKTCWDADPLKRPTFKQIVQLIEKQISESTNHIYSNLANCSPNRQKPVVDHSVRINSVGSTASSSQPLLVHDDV
# Cytochrome P450 2C9, sequence (P11712 whole entry): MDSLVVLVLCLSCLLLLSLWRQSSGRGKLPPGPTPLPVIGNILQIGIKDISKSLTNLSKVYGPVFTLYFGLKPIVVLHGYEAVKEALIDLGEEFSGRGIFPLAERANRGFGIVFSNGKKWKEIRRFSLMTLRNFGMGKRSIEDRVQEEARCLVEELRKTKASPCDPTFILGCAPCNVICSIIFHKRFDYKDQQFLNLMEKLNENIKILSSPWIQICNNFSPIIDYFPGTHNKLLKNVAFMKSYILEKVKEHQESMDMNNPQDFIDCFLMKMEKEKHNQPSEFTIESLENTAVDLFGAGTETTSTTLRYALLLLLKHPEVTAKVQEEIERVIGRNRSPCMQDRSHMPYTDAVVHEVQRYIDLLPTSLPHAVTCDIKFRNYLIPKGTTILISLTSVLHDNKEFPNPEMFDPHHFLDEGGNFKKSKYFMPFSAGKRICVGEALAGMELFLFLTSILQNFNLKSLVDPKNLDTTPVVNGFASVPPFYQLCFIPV
smiles,measurement,setting,value
COCCOc1ccn2c(-c3ccc4cccc(O[C@@H]5CNC[C@H]5OC)c4n3)cnc2c1 (racemic),IC50,[1],> 1 µM
same,IC50,[2],> 1 µM
same,IC50,[3],0.01 µM
COCCOc1ccn2c(-c3ccc4cccc(O[C@@H]5CCNC[C@@H]5O)c4n3)cnc2c1 (racemic),IC50,[3],0.002 µM
COCCOc1ccn2c(-c3ccc4cccc(O[C@@H]5CN[C@H](C(=O)OC)C5)c4n3)cnc2c1,IC50,[1],> 1 µM
same,IC50,[3],> 1 µM
COCCOc1ccn2c(-c3ccc4cccc(OCC5CCNC5)c4n3)cnc2c1 (racemic),IC50,[2],0.029 µM
same,IC50,[3],0.001 µM
COCCOc1ccn2c(-c3ccc4cccc(O[C@H]5CCNC[C@@H]5F)c4n3)cnc2c1,IC50,[4],0.491 µM
same,IC50,[5],> 10 µM
same,IC50,[6],> 10 µM
same,IC50,[7],> 10 µM
same,IC50,[8],> 10 µM
same,IC50,[2],0.055 µM
same,IC50,[9],> 10 µM
same,IC50,[3],0.003 µM
COCCOc1ccn2c(-c3ccc4cccc(O[C@@H]5CCNC[C@H]5F)c4n3)cnc2c1 (relative stereo),F,[10],30%
same,recovery,[11],30%
same,IC50,[4],0.682 µM
same,pKa,[12],7.4
same,IC50,[5],> 10 µM
same,IC50,[6],> 10 µM
same,Papp A→B,[13],44 nm/s
same,AUC,[14],2.1 µg·h/mL
same,IC50,[7],> 10 µM
same,IC50,[8],> 10 µM
same,IC50,[2],0.063 µM
same,IC50,[9],> 10 µM
same,IC50,[3],0.004 µM
same,Cmax,[15],0.12 µg/mL
COCCOc1ccn2c(-c3ccc4cccc(O[C@@H]5CCNC[C@H]5O)c4n3)cnc2c1 (racemic),IC50,[3],0.003 µM
COCCOc1ccn2c(-c3ccc4cccc(OCC5(F)CCNCC5)c4n3)cnc2c1,IC50,[3],0.001 µM
COCCOc1ccn2c(-c3ccc4cccc(O[C@H]5CN[C@H](C(=O)OC)C5)c4n3)cnc2c1,IC50,[1],> 1 µM
same,IC50,[3],0.958 µM
COCCOc1ccn2c(-c3ccc4cccc(OC5CCNCC5)c4n3)cnc2c1,bioavailability,[16],16%
same,recovery,[11],50%
same,IC50,[1],> 1 µM
same,IC50,[4],0.961 µM
same,pKa,[12],9.3
same,IC50,[5],> 10 µM
same,IC50,[6],> 10 µM
same,Papp A→B,[13],163 nm/s
same,solubility,[17],> 1 mg/mL
same,AUC,[18],0.8 µg·h/mL
same,IC50,[7],> 10 µM
same,IC50,[8],> 10 µM
same,IC50,[2],0.025 µM
same,clearance,[19],1.98 L/h/kg
same,IC50,[9],> 10 µM
same,IC50,[3],0.003 µM
same,Cmax,[20],0.07 µg/mL
COCCOc1ccn2c(-c3ccc4cccc(O[C@@H]5CCNC[C@H]5F)c4n3)cnc2c1 [listing 1 of 2 here],bioavailability,[21],6%
same,bioavailability,[16],28%
same,AUC,[22],0.95 µg·h/mL
same,IC50,[4],0.43 µM
same,IC50,[5],> 10 µM
same,IC50,[6],> 10 µM
same,Papp,[23],37 nm/s
same,AUC,[18],2.3 µg·h/mL
same,IC50,[7],> 10 µM
same,IC50,[2],0.07 µM
same,IC50,[24],3.9 µM
same,Activity,[25],Non-toxic
same,clearance,[19],1.2 L/h/kg
same,IC50,[9],> 10 µM
same,Cmax,[26],0.19 µg/mL
same,IC50,[3],0.003 µM
same,Cmax,[20],0.16 µg/mL
same,EC50,[27],0.065 mg/L
COCCOc1ccn2c(-c3ccc4cccc(O[C@@H]5CCNC[C@H]5F)c4n3)cnc2c1 [listing 2 of 2 here],inhibition,[28],inactive
same,inhibition,[27],Dose-dependent effect
COCCOc1ccn2c(-c3ccc4cccc(OCC5CCNCC5)c4n3)cnc2c1,IC50,[1],> 1 µM
same,IC50,[3],0.034 µM
COCCOc1ccn2c(-c3ccc4cccc(O[C@@H]5CCNC[C@@H]5F)c4n3)cnc2c1 (relative stereo),bioavailability,[16],13%
same,recovery,[11],30%
same,IC50,[4],> 1 µM
same,pKa,[12],7.5
same,IC50,[5],> 10 µM
same,IC50,[6],> 10 µM
same,Papp A→B,[13],27 nm/s
same,AUC,[18],0.73 µg·h/mL
same,IC50,[7],5.88 µM
same,IC50,[8],> 10 µM
same,IC50,[2],0.025 µM
same,clearance,[19],1.68 L/h/kg
same,IC50,[9],> 10 µM
same,IC50,[3],0.004 µM
same,Cmax,[20],0.07 µg/mL
COCCOc1ccn2c(-c3ccc4cccc(O[C@H]5CC[C@H](N)CC5)c4n3)cnc2c1,IC50,[1],> 1 µM
same,IC50,[3],0.028 µM
COCCOc1ccn2c(-c3ccc4cccc(OCc5cnc[nH]5)c4n3)cnc2c1,IC50,[1],> 1 µM
same,IC50,[3],> 1 µM
COCCOc1ccn2c(-c3ccc4cccc(OC5CCN(C)CC5)c4n3)cnc2c1,IC50,[3],0.009 µM
COCCOc1ccn2c(-c3ccc4cccc(OCC5CNCCO5)c4n3)cnc2c1 (racemic),IC50,[1],> 1 µM
same,IC50,[3],0.16 µM
COCCOc1ccn2c(-c3ccc4cccc(OCCN)c4n3)cnc2c1,IC50,[1],> 1 µM
same,IC50,[3],0.176 µM
COCCOc1ccn2c(-c3ccc4cccc(O[C@H]5CCCNC5)c4n3)cnc2c1,IC50,[3],0.005 µM
COCCOc1ccn2c(-c3ccc4cccc(O[C@@H]5CCCNC5)c4n3)cnc2c1,IC50,[3],0.072 µM
COCCOc1ccn2c(-c3ccc4cccc(OCC(C)(C)CN)c4n3)cnc2c1,IC50,[4],> 1 µM
same,IC50,[3],0.018 µM
